Measured values from patent US8314140B2, “4-hydroxythiobenzamide derivatives of drugs” (Antibe Therapeutics Inc., priority 2006, dated 2012).
“Also recorded” adds a separate entry of the source.

What was measured:
[1] = tested on: human platelet cAMP; assay: Human platelet cAMP concentrations; assay type: cell-based; settings: 3-100 μM, 10 minutes, IBMX 0.5 mM; versus vehicle; FIG. 21
Experimental: Platelet-rich plasma (PRP) was prepared as above. Aliquots of 400 μL of PRP were placed in glass tubes which contained IBMX (isobutyl-1-methylxanthine; 0.5 mM), an non-selective phosphodiesterase inhibitor. […] As a positive control, some aliquots of platelets were treated with forskolin (10 μM), a known stimulus of adenylate cyclase. Ten minutes later, the samples of PRP were centrifuged at 9,000 g for 2 min and the supernatant was discarded. The pellet was resuspended in buffer, sonicated for 2 min, then cAMP concentrations were determined using a specific enzyme-linked immunosorbent assay (Cayman Chemical Co., Ann Arbor, Mich., USA). Experiments were repeated 4-6 times for each concentration of each drug.

[2] = tested on: gastric damage; assay: Gastric damage score 3 h after oral dosing; assay type: in vivo, rat; settings: oral, 3 h; diclofenac 20 mg/kg or equimolar doses (Compound XVII 27.3 mg/kg, TBZ 7.3 mg/kg); FIG. 8
Description: There were 5 rats in each group.
(§1) Each group consisted of 5 rats.

[3] = tested on: leukocyte adherence to the vascular endothelium; assay: Leukocyte adherence after NSAID or derivative, intravital microscopy (Example 21); assay type: in vivo, rat; settings: comment on Table 2
Description: (§2) Briefly, post-capillary mesenteric venules in anestheitized rats are examined under a light microscope.

[4] = tested on: gastric damage; assay: Incidence of gastric damage at end of the leukocyte adherence experiment
Description: as §2

[5] = tested on: gastric ulcers; assay: Healing of acetic acid-induced gastric ulcers; assay type: in vivo, rat; settings: oral twice-daily for 4 days; 30 μmol/kg (naproxen, Compound XX 60 μmol/kg); FIG. 17
Experimental: Gastric ulcers were induced via serosal application of acetic acid, as described by Elliott et al., A nitric oxide-releasing nonsteroidal anti-inflammatory drug accelerates gastric ulcer healing in rats. […] After 4 days of such treatment, the rats were euthanized and the stomach was excised and photographed. The area (in mm^2) of the ulcer was determined planimetrically by an individual unaware of the treatments given to the rats.

[6] = H2S generation in buffer and liver homogenate (Example 24); assay type: in vitro ADME; settings: 1 mM, FIG. 19
Experimental: Two ml of an assay reaction mixture was introduced in to ice-cold 250 μl of NaOH 0.1 N in a sealed 3-neck reactor. […] Incubations were lead with or without presence of 10% (w/v) liver homogenate and 2 mM pyridoxal 5′-phosphate. A constant stream of nitrogen was passed through the mixture via a gas-inlet capillary. […] Khan et al., 1980). Reactions were initiated by transferring the tube from ice bath to a 37° C. water bath. The stream of nitrogen carried the sulfide acid in the second reactor containing 2 ml of SAOB as described previously. After incubating at 37° C. for 90 minutes, 1 ml of 50% trichloroacetic acid solution was added to mixture to stop the reaction. […] The concentration of sulfide in SAOB solution was measured with a sulfide sensitive electrode as previously described (Ubuka, 2002; Khan et al., 1980).

[7] = tested on: carrageenan-induced paw edema; assay: Carrageenan hindpaw edema model; assay type: in vivo, rat; settings: oral 30 min prior to carrageenan; diclofenac 1, 3 or 10 mg/kg; Compound XVII equimolar to diclofenac 3 mg/kg; FIG. 14
Experimental: Male, Wistar rats weighing 175-200 g were given the test compounds orally 30 min prior to subplantar injection of 100 ul of 1% lambda carrageenan.

[8] = hypertensive rats, 60 μmol/kg intraperitoneal bolus, 60 minutes; FIG. 18
[9] = molecular target: T1, COX-2 (Rattus norvegicus, UniProt P35355); assay: Rat airpouch assay, exudate PGE2 after zymosan; assay type: in vivo; settings: 60 μmol/kg; versus vehicle; FIG. 15
T1 construct: from tissue; host or cells: rat subcutaneous airpouch exudate, in vivo, zymosan-induced
T1 sequence (P35355 18-604): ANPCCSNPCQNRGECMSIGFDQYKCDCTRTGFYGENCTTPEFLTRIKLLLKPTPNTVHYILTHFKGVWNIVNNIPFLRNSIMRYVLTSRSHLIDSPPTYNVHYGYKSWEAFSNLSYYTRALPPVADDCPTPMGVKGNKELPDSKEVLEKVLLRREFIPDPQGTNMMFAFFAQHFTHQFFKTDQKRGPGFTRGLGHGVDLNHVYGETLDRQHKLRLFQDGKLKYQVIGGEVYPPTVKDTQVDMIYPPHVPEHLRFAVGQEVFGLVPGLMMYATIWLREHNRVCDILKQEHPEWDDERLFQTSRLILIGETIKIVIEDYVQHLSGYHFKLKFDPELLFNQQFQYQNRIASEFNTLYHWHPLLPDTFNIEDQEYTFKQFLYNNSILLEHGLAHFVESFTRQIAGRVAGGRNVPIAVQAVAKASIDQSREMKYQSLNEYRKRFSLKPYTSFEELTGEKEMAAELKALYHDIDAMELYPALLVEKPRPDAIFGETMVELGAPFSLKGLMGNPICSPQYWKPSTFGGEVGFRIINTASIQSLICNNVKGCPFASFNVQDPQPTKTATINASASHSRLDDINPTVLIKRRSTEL
Experimental: Briefly, a subcutaneous “pouch” is created by repeated injections of air over several days. Once established, inflammation in the pouch can be induced by injection of 1 mL of 1% zymosan. […] Another group of 5 rats was treated with the vehicle, but received an injection of 0.9% sterile saline into the pouch rather than zymosan.
as §1

[10] = tested on: visceral pain perception; assay: Rat model of visceral pain perception (colorectal distension, AWR score); assay type: in vivo; settings: 0.8 mL colorectal distention; glibenclamide 10 mg/kg i.p. 30 min before; FIG. 3
Experimental: A rat model of visceral pain perception, a pre-clinical model of irritable bowel syndrome, was used in the following example. Rats (male, Wistar, 200-250 g, obtained from Charles River, Monza, Italy), were housed in plastic cages and maintained under controlled conditions with 12-hours light/dark cycle with lights on at 7.00 AM. Tap water and standard laboratory chow were freely available. Before experiments, rats were individually trained by spending 2-3 hours per day in a plexiglass cage for 2-3 days. It allowed them to adjust to a movement-restriction environment. Food was withheld for 12 hours before colorectal distension (CRD) recording were performed. Experiments were performed in awake rats and were conducted in a blind manner in that the observer was not aware of the identity of drug administered to each animal.
In the testing day, rats were sedated with ether inhalation and a 2 cm long latex balloon was inserted intrarectally 2 cm from the anal verge and fixed at the base of the tail. The balloon was connected via a double-barreled cannula to a pressure transducer to continuously monitoring the rectal pressure by a computer (PowerLab PC, A.D. Instruments, Milford, Mass., USA) and to a syringe for inflation/deflation of the balloon. The rats were then housed in a small cage (20×8×8 cm) on an elevated Plexiglas™ platform and allowed to wake up and adapt for 1 hour. After recovery from sedation, animals underwent the CRD procedure and behavioral responses were tested. The night before the experiments, the balloons were inflated and left overnight so the latex stretched and the balloons became compliant.
CRD of 20 seconds, performed every 5 minutes, was applied in increment of 0.4 ml starting from 0.4 ml up to 1.6 ml water. To achieve an accurate measurement of the colonic parameters and perception, the distensions were repeated twice for each intensity and data for each animal were averaged for analysis. Each animal underwent a double set of CRD. Twenty minutes after the first sequence of CRD (0.4 mL-1.6 ml water), drugs were administered intraperitoneally (i.p.) and a second set of CRD was performed. Behavioral responses during the first and the second set of CRD were assessed and compared.
Behavioral response to CRD was assessed by measuring the abdominal withdrawal reflex (AWR) using a semiquantitative score (1).
A rat model of visceral pain perception as described above was used to compare pain perception scores for 5-amino-2-(4-thiocarbamoyl-phenoxycarbonyloxy)-benzoic acid (Compound XXVII) with or without glibenclamide, an inhibitor of ATP-sensitive K^+ (KATP) channels.
Experiments were carried out as described in Example 13, except that groups of 5 rats each were treated with vehicle, trimebutine maleate (10 mg/kg), or with equimolar doses of trimebutine thiocarbamoylbenzoate (Compound III) or thiocarbamolybenzoate alone.

[11] = patients after usual doses; Dig. Dis. Sci. 1989; 34: 573-578; cited from earlier work

For `CCC(C)(C)C(=O)O[C@H]1C[C@@H](C)C=C2C=C[C@H](C)[C@H](CC[C@H]3C[C@H](OC(=O)CCC(=O)Oc4ccc(C(N)=S)cc4)CC(=O)O3)[C@H]21` [Compound I, Succinic acid 2-{2-[8-(2,2-dimethyl-butyryloxy)-2,6-dimethyl-1,2,6,7,8,8a-hexahydro-naphthalen-1-yl]-ethyl}-6-oxo-tetrahydro-pyran-4-yl ester 4-thiocarbamoyl-phenyl ester], the “platelet cAMP” value [1] was “significant increase in platelet cAMP at concentrations of 10, 30 and 100 μM”.
In the case of `NC(=S)c1ccc(OC(=O)Cc2ccccc2Nc2c(Cl)cccc2Cl)cc1` [Compound XVII, [2-(2,6-dichloro-phenylamino)-phenyl]-acetic acid 4-thiocarbamoyl-phenyl ester], the gastric damage score [2] was “no gastric damage; also recorded: significantly less gastric damage than diclofenac”, the “number of adherent leukocytes compared to the parent drug alone” value [3] was “significantly reduced the number of adherent leukocytes” and the “percent incidence of gastric damage compared to the parent drug alone” value ([4]; comment on Table 2) was “significantly reduced the percent incidence of gastric damage”. For the same compound, the “Percent Incidence of Gastric Damage” value ([4]; intragastric 30 μmol/kg (naproxen and Compound XX 60 μmol/kg), end of experiment) was 20%, the “gastric ulcer healing (ulcer surface area)” value [5] was “significantly greater healing” and the “H2S generated in liver homogenate” value ([6]; 10% (w/v) liver homogenate) was “greater release of H2S from Compound XVII than from TBZ”. For the same compound, the “H2S generated in buffer” value ([6]; potassium phosphate buffer pH 7.4) was “significantly more release of H2S than an equivalent amount of TBZ”, the “paw edema (paw volume increase)” value [7] was “reduced paw edema to a greater extent; also recorded: comparable to the effect of diclofenac at a dose of 10 mg/kg” and the melting point was 170 to 172 °C.
With `COc1ccc2cc([C@H](C)C(=O)O)ccc2c1` [naproxen] the “increase in systolic blood pressure” value [8] was “substantial increase in systolic blood pressure” and the “exudate PGE2 in the pouch (COX-2 activity)” value [9] was “significantly suppressed COX-2 activity”.
For `Nc1ccc(O)c(C(=O)O)c1` [mesalamine, reference compound], the “pain perception score after glibenclamide pretreatment” value [10] is listed as “did not affect the pain perception” and the “concentration in the colonic lumen” value [11] is listed as “up to 5 mM”.
